Legend:
soluble hIL6 receptor = assay: hIL-6R binding (affinity for the soluble hIL6 receptor); parameters: species or system human; conditions: mutant hIL6 produced in E. coli
Source text: Affinity for the soluble hIL6 receptor of mutant hIL6 produced in E. coli

[1] = tested on: murine hybridoma cell line 7TD1; assay: HGF (Hybridoma Growth Factor) assay, growth of hIL-6 dependent hybridoma 7TD1; assay type: cell-based; conditions: murine hybridoma 7TD1, HGF assay
Experimental: Mutant interleukin 6 according to the present invention has also been tested using the classical HGF (Hybridoma Growth Factor) assay for its ability to stimulate growth of the hIL-6 dependent murine hybridoma cell line 7TD1 (Van Snick, J., Cayphas, S., Vink, A., Uyttenhove, C., Coulie, P. G. and Simpson, R. J. (1986) Proc. Natl. Acad. Sci. USA, 83, 9679-9683). The assay was performed taking into account the indications of Fiorillo, M. T., Cabibbo, A., Iacopetti, P., Fattori, E. and Ciliberto, G. (1992) Eur. J. Immunol. 22, 2609-2615.

[2] = tested on: human hepatoma cell line Hep3B; assay: CRP-CAT transcription induction assay in transfected human hepatoma Hep3B cells; assay type: cell-based; conditions: ratio of amounts of wild type hIL-6 and mutant giving half maximal stimulation of CRP-CAT in Hep3B cells; wild type = 100%
Experimental: The biological activity of the mutant of interest was determined first of all on cells of human origin. The activity of hIL-6 on human cells was assayed for its ability to enhance transcription from acute phase gene promoters in cells of hepatic origin (Morrone, G., Ciliberto, G., Oliviero, S., Arcone, R., Dente, L., Content, J. and Cortese, R. (1988) J. Biol. Chem. 263, 12554-12558). […]
In particular, human Hep3B cells were transfected with 45-50/ ug of the plasmid -219 CRP-CAT containing the IL-6 responsive element of the CRP promoter gene. […] After 16-18 hours, precipitates were removed, cells were trypsinized, pooled, counted and plated in equal number (10^5 to 3×10^5) in 5 cm diameter petri dishes; 7-9 hours after plating, cells were induced for 36-40 hours with increasing amounts of mutant or wild-type hIL-6. […]
The assay was carried out in duplicate (in triplicate in case of wild type hIL-6) with serial dilutions of two to four independent preparations of mutant. The activity of the mutant, expressed as a percent of wild type hIL-6, was calculated as the ratio between the amount of wild type hIL-6 and the amount of the mutant under examination necessary to give half maximal stimulation.

## S176R: mutant human interleukin 6 with arginine in position 176 in place of serine of wild interleukin 6 [Mutation S176R]
Soluble hIL6 receptor
  hIL-6R binding (% of wt hIL-6): 320 ± 87 % of wt hIL-6
[1]
  ability to stimulate growth of hIL-6 dependent 7TD1 cells, with respect to the wild type: significant increase in biological activity
[2]
  Biological activity (% of wt hIL-6): 370±90 % of wt hIL-6

Source: patent US5681723A, “Mutant interleukin 6 with improved biological activity over wild interleukin 6” (Instituto di Ricerche di Biologia Molecolare P. Angelett …, priority 1992, dated 1997)
